Test results from article PMC5737775 (Journal of Alzheimer's disease : JAD, 2017).

Experiments:
[1] = target: rAβ42 (Aβ1-42) aggregation (Homo sapiens, UniProt P05067); test: Thioflavin T assay of Aβ42 aggregation; format: biochemical; details: for anti-aggregation activity, result in words: Aβ1-42, 48 h, thioflavin T, 1, 3, 10, 30 μM
peritoneal macrophages = test: MTT cytotoxicity assay on peritoneal macrophages; format: cell-based, C57Bl/6 mice; details: for cell viability (MTT): at the concentrations tested (1, 3, 10, 30 μM)
[2] = test system: IL-6 production by peritoneal macrophages stimulated with LPS; test: IL-6 secretion by LPS-stimulated murine peritoneal macrophages; format: cell-based, C57Bl/6 mice; details: for inhibition of IL-6 at 30 μM: 30 μM compound, LPS 10 ng/mL; for anti-inflammatory activity (IL-6 secretion), result in words: LPS-stimulated macrophages, 1, 3, 10, 30 μM

rAβ42 (Aβ1-42) aggregation, sequence (P05067 672-713 limits assumed): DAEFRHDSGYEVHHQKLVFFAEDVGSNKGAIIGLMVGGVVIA

SMILES	anti-aggregation activity, result in words [1]	IC50 [1] [nM]	cytotoxicity (MTT) at 30 μM (peritoneal macrophages; 30 μM)	inhibition of IL-6 at 30 μM [2]	anti-inflammatory activity (IL-6 secretion), result in words [2]	cell viability (MTT) (peritoneal macrophages)
C#CCOc1ccc(/C=C/C(=O)CC(=O)/C=C/c2ccc(OCC#C)c(OC)c2)cc1OC [Compound 2, (1E,6E)-1,7-bis(3-methoxy-4-(prop-2-yn-1-yloxy)phenyl)hepta-1,6-diene-3,5-dione]	did not present anti-aggregation activity	–	–	–	–	–
COc1cc(/C=C/C(O)=C/C(=O)/C=C/c2ccc(OCc3ccccc3)c(OC)c2)ccc1O [Compound 3, (1E, 4Z, 6E)-1-(4-(benzyloxy)-3-methoxyphenyl)-5-hydroxy-7-(4-hydroxy-3-metho-xyphenyl)hepta-1,4,6-trien-3-one]	inhibited the aggregation of Aβ in a concentration-dependent manner	–	–	–	–	–
COc1cc(/C=C/C(O)=C/C(=O)/C=C/c2ccc(OC(C)=O)c(OC)c2)ccc1O [Compound 4, 4-((1E,4Z,6E)-5-hydroxy-7-(4-hydroxy-3-methoxyphenyl)-3-oxohepta-1,4,6-trien-1-yl)-2-methoxyphenyl acetate]	inhibited the aggregation of Aβ in a concentration-dependent manner	1320 ± 700	–	–	–	–
C=CCOC(=O)CCC(=O)Oc1ccc(/C=C/C(=O)/C=C(O)/C=C/c2ccc(OC(=O)CCC(=O)OCC=C)c(OC)c2)cc1OC [Compound 5, diallyl O,O′-(((1E,3Z,6E)-3-hydroxy-5-oxohepta-1,3,6-triene-1,7-diyl)bis(2-methoxy-4,1-phenylene)) disuccinate]	inhibited the aggregation of Aβ in a concentration-dependent manner	–	exhibited cytotoxicity	complete inhibition	mid-to-strong inhibition	–
C=CCOC(=O)CCC(=O)Oc1ccc(/C=C/C(=O)/C=C(O)/C=C/c2ccc(O)c(OC)c2)cc1OC [Compound 6, allyl (4-((1E,4Z,6E)-5-hydroxy-7-(4-hydroxy-3-methoxyphenyl)-3-oxohepta-1,4,6-trien-1-yl)-2-methoxyphenyl) succinate]	inhibited the aggregation of Aβ in a concentration-dependent manner	1770 ± 900	–	complete inhibition	mid-to-strong inhibition	did not affect the cell viability
COc1cc(/C=C/C(=O)/C=C(O)/C=C/c2ccc(OC(=O)CCC(=O)OCc3ccccc3)c(OC)c2)ccc1OC(=O)CCC(=O)OCc1ccccc1 [Compound 7, dibenzyl O,O′-(((1E,3Z,6E)-3-hydroxy-5-oxohepta-1,3,6triene-1,7-diyl)bis(2-methoxy-4,1-phenylene)) disuccinate]	–	–	–	–	did not show any anti-inflammatory activity	–
COc1cc(/C=C/C(O)=C/C(=O)/C=C/c2ccc(OC(=O)CCC(=O)OCc3ccccc3)c(OC)c2)ccc1O [Compound 8, benzyl (4-((1E,4Z,6E)-5-hydroxy-7-(4-hydroxy-3-methoxyphenyl)-3-oxohepta-1,4,6-trien-1-yl)-2-methoxyphenyl) succinate]	did not present anti-aggregation activity	–	–	complete inhibition	mid-to-strong inhibition	did not affect the cell viability
COc1cc(C=CC(=O)C=C(O)C=Cc2ccc(OC(=O)CCC(=O)OC3CCCC3)c(OC)c2)ccc1OC(=O)CCC(=O)OC1CCCC1 [Compound 9, dicyclopentyl O,O′-(((1E,3Z,6E)-3-hydroxy-5-oxohepta-1,3,6-triene-1,7-diyl)bis(2-methoxy-4,1-phenylene)) disuccinate]	did not present anti-aggregation activity	–	–	–	did not show any anti-inflammatory activity	–
COc1cc(/C=C/C(O)=C/C(=O)/C=C/c2ccc(OC(=O)CCC(=O)OC3CCCC3)c(OC)c2)ccc1O [Compound 10, cyclopentyl (4-((1E,4Z,6E)-5-hydroxy-7-(4-hydroxy-3-methoxyphenyl)-3-oxohepta-1,4,6-trien-1-yl)-2-methoxyphenyl) succinate]	inhibited the aggregation of Aβ in a concentration-dependent manner	2040 ± 700	–	complete inhibition	mid-to-strong inhibition	did not affect the cell viability
